Key:
[1] = target: T1, C-C chemokine receptor type 7 (Homo sapiens, UniProt P32248); assay: Antagonist activity at CCR7 in human CD4 cells by fluorescence based calcium mobilization assay; assay type: functional, cell-based, CD4+ve Th
T1 sequence (P32248 whole entry): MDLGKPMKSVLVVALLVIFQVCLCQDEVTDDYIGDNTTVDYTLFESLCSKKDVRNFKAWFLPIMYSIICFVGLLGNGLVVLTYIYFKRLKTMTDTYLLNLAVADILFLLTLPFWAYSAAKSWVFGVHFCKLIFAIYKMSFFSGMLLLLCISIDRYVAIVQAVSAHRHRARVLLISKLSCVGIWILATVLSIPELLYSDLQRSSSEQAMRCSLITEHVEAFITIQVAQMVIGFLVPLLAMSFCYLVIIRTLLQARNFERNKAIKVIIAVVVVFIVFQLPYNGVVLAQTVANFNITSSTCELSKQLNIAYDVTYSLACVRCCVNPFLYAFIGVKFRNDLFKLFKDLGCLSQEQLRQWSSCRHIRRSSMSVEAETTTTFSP

[2] = target: T2, C-X-C chemokine receptor type 2 (Homo sapiens, UniProt P25025); assay: Antagonist activity at CXCR2 in human CD4 cells by fluorescence based calcium mobilization assay; assay type: functional, cell-based, CD4+ve Th
T2 sequence (P25025 whole entry): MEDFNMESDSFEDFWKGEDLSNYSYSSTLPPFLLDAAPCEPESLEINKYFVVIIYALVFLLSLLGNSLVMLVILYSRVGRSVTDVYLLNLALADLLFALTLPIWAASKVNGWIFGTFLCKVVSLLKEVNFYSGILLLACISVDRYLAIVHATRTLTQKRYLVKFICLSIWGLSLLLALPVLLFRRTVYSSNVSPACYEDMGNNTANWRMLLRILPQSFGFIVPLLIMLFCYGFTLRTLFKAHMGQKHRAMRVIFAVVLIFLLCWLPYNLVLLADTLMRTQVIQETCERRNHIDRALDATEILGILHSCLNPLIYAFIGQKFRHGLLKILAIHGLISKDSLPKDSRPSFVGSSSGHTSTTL

[3] = target: T1, C-C chemokine receptor type 7; assay: Competitive binding affinity to CCR7 in human U87 cells preincubated for 15 mins followed by CCL19 AF647 addition measured after 30 mins by flow cytometric analysis; assay type: cell-based

An IC50 [1] greater than 30 µM was found for `C[C@H](CO)Nc1nc(SCc2cccc(F)c2F)nc2nc(N)sc12` in this work.
An IC50 [1] greater than 30 µM was found for `C[C@H](CO)Nc1nc(SCc2cccc(F)c2F)nc2sccc12` in this work.
An IC50 [1] greater than 30 µM was found for `C[C@H](CO)Nc1nc(SCc2cccc(F)c2F)nc2cccnc12` in this work.
An IC50 [1] greater than 30 µM was found for `C[C@H](CO)Nc1nc(SCc2cccc(F)c2F)nc2ccsc12` in this work.
An IC50 [1] greater than 30 µM was found for `C[C@H](CO)Nc1nc(SCc2cccc(F)c2F)nc2cc[nH]c12` in this work.
An IC50 [1] greater than 30 µM was found for `C[C@H](CO)Nc1nc(SCc2cccc(F)c2F)nc2cnccc12` in this work.
An IC50 [1] greater than 30 µM was found for `C[C@H](CO)Nc1nc(SCc2cccc(F)c2F)nc2c1CNCC2` in this work.
An IC50 [1] greater than 30 µM and an IC50 [2] of 2.98 µM were found for `Fc1cccc(CSc2nc(NCC3CC3)c3nn[nH]c3n2)c1F` in this work.
An IC50 [1] of 1.68 µM was found for `C[C@H](CO)Nc1nc(SCCC2CCCCC2)nc2[nH]nnc12` in this work.
An IC50 [1] of 23.8 µM was found for `C[C@H](CO)Nc1nc(OCc2cccc(F)c2F)nc2[nH]nnc12` in this work.
An IC50 [1] greater than 30 µM and an IC50 [2] greater than 30 µM were found for `Fc1cccc(CSc2nc(N3CCNCC3)c3nn[nH]c3n2)c1F` in this work.
An IC50 [1] of 2.29 µM was found for `CC(C)(CO)Nc1nc(SCc2cccc(F)c2F)nc2[nH]nnc12` in this work.
An IC50 [1] of 17.2 µM and an IC50 [2] of 8.78 µM were found for `COCCNc1nc(SCc2cccc(F)c2F)nc2[nH]nnc12` in this work.
An IC50 [1] of 8.49 µM and an IC50 [2] of 2.58 µM were found for `CCCC(C)CSc1nc(N[C@H](C)CO)c2nn[nH]c2n1` (stereo not given in full) in this work.
An IC50 [1] of 5.28 µM was found for `CC(C)CCCCSc1nc(N[C@H](C)CO)c2nn[nH]c2n1` in this work.
An IC50 [2] of 2.37 µM was found for `C[C@H](CO)Nc1nc(SCC2CCCC2)nc2[nH]nnc12` in this work.
An IC50 [1] of 5.81 µM was found for `OCCSc1nc(SCc2cccc(F)c2F)nc2[nH]nnc12` in this work.
An IC50 [1] greater than 30 µM was found for `CN(C)c1nc(SCc2cccc(F)c2F)nc2[nH]nnc12` in this work.
An IC50 [1] of 29.3 µM was found for `CCCOCCSc1nc(N[C@H](C)CO)c2nn[nH]c2n1` in this work.
An IC50 [1] of 8.66 µM was found for `OCCNc1nc(SCc2cccc(F)c2F)nc2[nH]nnc12` in this work.
An IC50 [1] of 7.14 µM and an IC50 [2] of 2.09 µM were found for `C[C@H](CCO)Nc1nc(SCc2cccc(F)c2F)nc2[nH]nnc12` in this work.
An IC50 [1] greater than 30 µM and an IC50 [2] greater than 30 µM were found for `CN(C)CCNc1nc(SCc2cccc(F)c2F)nc2[nH]nnc12` in this work.
An IC50 [1] greater than 30 µM and an IC50 [2] of 11.5 µM were found for `CC(C)(C)OC(=O)N1CCN(c2nc(SCc3cccc(F)c3F)nc3[nH]nnc23)CC1` in this work.
An IC50 [2] greater than 30 µM was found for `CCCNC(=O)CSc1nc(N[C@H](C)CO)c2nn[nH]c2n1` in this work.
An IC50 [1] of 1.18 µM was found for `C[C@H](CO)Nc1nc(SCCc2ccccc2)nc2[nH]nnc12` in this work.
An IC50 [1] of 18.6 µM was found for `OCCCNc1nc(SCc2cccc(F)c2F)nc2[nH]nnc12` in this work.
An IC50 [1] greater than 30 µM was found for `C[C@H](CO)Nc1nc(SCc2cccc(F)c2F)nc2c1nnn2C` in this work.
An IC50 [2] of 1.75 µM was found for `C[C@@H](CO)Nc1nc(SCc2cccc(F)c2F)nc2[nH]nnc12` in this work.
An IC50 [2] of 6.4 µM was found for `Cc1ccc([C@H](NC2=NS(=O)(=O)N=C2Nc2ccc(C)c(C(=O)N(C)C)c2O)C(C)(C)C)o1` in this work.
An IC50 [2] greater than 30 µM was found for `C[C@H](CO)Nc1nc(SC2CCCCC2)nc2[nH]nnc12` in this work.
An IC50 [1] of 0.43 µM and an IC50 [3] of 1.78 µM were found for `CCCCCCSc1nc(N[C@H](C)CO)c2nn[nH]c2n1` in this work.
An IC50 [1] greater than 30 µM was found for `C[C@H](CO)Nc1nc(Sc2ccccc2)nc2[nH]nnc12` in this work.
